Assay [1] deals with Streptococcus sp. 'group A'. Briefly: Streptococcus pyogenes SK(-)GAS viability under kanamycin – luminescence, BacTiterGlo, confirmation, counter-screen for streptokinase expression inhibitor project, dose response (AID 1900). The class given is functional, organism-based.
A further assay has as its target T1, Streptokinase A (Streptococcus pyogenes serotype M1, UniProt P10520).
T1 sequence (P10520 whole entry): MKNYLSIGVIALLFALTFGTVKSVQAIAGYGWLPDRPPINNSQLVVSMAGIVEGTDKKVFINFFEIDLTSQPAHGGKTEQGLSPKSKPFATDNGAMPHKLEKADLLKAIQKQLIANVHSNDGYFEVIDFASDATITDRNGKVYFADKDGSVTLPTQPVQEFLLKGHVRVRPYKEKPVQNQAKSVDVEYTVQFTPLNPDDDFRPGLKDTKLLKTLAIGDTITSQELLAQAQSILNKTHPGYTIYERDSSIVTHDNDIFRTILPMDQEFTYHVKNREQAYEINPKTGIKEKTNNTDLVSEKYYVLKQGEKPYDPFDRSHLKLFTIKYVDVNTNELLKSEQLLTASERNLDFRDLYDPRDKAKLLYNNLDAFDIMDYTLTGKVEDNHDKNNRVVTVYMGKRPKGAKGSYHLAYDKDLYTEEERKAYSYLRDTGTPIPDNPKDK
As to the kind of experiment: viability-normalized secreted streptokinase activity reduction – plasminogen activation absorbance, OD405, dose response (AID 1914).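 Also: secreted streptokinase activity via plasminogen activation per viability signal from cell pellet.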 The class given is functional, Streptococcus pyogenes M1 GAS.

A further assay concerns Streptococcus. Briefly: GAS UMAA2166 growth inhibition – luminescence, BacTiterGlo, counter-screen for streptokinase expression inhibitor project, dose response (AID 1915).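 Also: potency for reduction of bacterial viability or growth.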 The format is functional, organism-based. On the technique in general: The purpose of a counterscreen is to sort out artefacts and off-target activity.
The target in the next assay is Cytochrome P450 2D6 (Homo sapiens, UniProt P10635).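 Also: CYP2D6 member of a cytochrome P450 panel assay.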
Chain of Cytochrome P450 2D6 (P10635 whole entry): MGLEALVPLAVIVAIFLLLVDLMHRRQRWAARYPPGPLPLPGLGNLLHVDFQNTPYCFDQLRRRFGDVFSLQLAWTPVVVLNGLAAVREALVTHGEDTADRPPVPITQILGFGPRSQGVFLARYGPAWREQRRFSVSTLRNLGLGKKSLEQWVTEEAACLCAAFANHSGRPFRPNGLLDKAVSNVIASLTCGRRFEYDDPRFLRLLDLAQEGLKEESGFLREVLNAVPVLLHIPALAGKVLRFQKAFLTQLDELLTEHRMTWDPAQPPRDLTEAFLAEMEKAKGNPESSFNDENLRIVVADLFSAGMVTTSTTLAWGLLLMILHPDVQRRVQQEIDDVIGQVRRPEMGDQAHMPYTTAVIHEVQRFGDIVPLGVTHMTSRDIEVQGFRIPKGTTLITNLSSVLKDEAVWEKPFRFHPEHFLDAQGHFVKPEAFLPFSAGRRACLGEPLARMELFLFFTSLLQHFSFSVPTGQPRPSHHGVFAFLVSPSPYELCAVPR
The target in the next assay is T2, Cytochrome P450 1A2 (Homo sapiens, UniProt P05177).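 Also: PubChem cytochrome P450 panel assay, CYP1A2 panel member.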
T2 sequence (P05177 whole entry): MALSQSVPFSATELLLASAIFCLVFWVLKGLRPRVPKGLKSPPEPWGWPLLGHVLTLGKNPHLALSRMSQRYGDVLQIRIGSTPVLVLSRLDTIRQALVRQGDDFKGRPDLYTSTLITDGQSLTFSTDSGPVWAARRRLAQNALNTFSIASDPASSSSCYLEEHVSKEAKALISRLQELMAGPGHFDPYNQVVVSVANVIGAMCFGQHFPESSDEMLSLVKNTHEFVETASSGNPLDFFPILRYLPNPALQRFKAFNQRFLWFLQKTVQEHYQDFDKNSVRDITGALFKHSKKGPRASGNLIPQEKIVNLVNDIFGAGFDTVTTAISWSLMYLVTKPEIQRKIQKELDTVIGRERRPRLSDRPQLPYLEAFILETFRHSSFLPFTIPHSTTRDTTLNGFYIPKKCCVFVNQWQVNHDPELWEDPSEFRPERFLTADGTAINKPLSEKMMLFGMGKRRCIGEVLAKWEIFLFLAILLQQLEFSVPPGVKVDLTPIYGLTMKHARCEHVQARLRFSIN

A short description of assay [2]: Luminescence Cell-Based Dose Retest to Confirm Inhibitors of Cancer Stem Cells. [Related pubchem assays (depositor defined):AID2717, AID2721]. The following applies: Homo sapiens. The class given is functional.
A further assay deals with Cytochrome P450 2C19 (Homo sapiens, UniProt P33261). Briefly: Cytochrome panel assay with activity outcomes. Panel member name: p450-cyp2c19 Compounds with AC50 equal or less than 10 uM are considered active. The class given is functional. The following applies: read-out: AC50.
Chain of Cytochrome P450 2C19 (P33261 whole entry): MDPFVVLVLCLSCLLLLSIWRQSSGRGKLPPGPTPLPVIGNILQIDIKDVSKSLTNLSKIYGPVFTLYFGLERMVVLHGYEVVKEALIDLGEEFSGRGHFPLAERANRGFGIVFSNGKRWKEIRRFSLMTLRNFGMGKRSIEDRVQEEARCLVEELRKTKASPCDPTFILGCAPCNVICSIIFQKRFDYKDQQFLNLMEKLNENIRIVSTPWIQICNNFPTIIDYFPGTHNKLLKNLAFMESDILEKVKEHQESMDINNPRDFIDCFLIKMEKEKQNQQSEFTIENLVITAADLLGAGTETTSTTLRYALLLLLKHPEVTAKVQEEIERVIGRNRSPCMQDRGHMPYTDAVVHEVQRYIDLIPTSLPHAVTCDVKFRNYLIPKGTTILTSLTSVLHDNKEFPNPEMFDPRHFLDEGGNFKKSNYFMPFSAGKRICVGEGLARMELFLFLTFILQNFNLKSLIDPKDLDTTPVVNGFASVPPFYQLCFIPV
For another assay, the target named is Cytochrome P450 2C9 (Homo sapiens, UniProt P11712).
Chain of Cytochrome P450 2C9 (P11712 whole entry): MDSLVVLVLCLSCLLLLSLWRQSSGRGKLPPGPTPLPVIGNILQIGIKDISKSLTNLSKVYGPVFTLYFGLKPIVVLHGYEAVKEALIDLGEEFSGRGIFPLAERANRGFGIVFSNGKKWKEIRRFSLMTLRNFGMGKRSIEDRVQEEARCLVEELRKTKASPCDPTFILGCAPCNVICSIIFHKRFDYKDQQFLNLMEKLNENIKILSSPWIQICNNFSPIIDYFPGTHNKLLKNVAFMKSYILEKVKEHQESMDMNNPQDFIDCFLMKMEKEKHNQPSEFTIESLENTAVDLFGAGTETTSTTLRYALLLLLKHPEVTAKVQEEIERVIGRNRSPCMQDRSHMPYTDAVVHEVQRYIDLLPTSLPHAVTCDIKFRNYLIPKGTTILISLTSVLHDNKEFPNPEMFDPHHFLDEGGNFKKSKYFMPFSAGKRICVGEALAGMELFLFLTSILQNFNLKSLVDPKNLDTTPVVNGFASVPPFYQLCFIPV
Assay [3] can be described thus: Trypanosoma cruzi growth suppression in host cells – NIH3T3 host cells, beta-gal luminescence, confirmation (AID 2044).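 Also: intracellular parasites grown in NIH/3T3 mouse fibroblasts as host cells; luminescent beta-galactosidase reporter signal from transgenic T. cruzi replicating inside host cells; inhibitors lower the luminescence signal.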 The class given is functional, cell-based.
Assay [4] is described as follows: NIH3T3 cell viability loss – ATP luminescence, mouse fibroblasts, counter-screen, dose response (AID 2010).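 Also: cells exposed to compound for about 90 hours before reading.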 The class given is functional, cell-based.
The subject of a further assay is INS1. As to the kind of experiment: INS-1E survival protection against cytokine death – cell-based, luminescence, retest, dose response (AID 449756).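 Also: cell death triggered by IL-1 beta plus TNF-alpha plus IFN-gamma mixture; protective hits raise ATP signal compared with cytokine alone wells.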 The class given is functional. The following applies: Rattus norvegicus.
For the next assay, the target named is Cytochrome P450 3A4 (Homo sapiens, UniProt P08684).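 Also: CYP3A4 tested as one member of a cytochrome P450 panel screen.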
Chain of Cytochrome P450 3A4 (P08684 whole entry): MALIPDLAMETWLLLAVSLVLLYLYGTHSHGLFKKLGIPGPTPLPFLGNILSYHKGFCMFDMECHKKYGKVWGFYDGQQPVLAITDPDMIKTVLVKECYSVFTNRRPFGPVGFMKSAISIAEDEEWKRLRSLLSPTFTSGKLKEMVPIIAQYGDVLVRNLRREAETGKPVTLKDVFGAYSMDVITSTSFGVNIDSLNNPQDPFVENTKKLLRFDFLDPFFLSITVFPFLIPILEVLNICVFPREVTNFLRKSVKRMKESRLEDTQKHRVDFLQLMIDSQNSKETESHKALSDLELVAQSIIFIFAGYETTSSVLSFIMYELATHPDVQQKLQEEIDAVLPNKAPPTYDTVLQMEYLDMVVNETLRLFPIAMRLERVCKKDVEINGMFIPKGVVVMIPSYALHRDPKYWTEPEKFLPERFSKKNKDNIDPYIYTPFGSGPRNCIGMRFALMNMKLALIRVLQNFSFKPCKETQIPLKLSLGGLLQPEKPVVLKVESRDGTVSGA
A short description of assay [5]: luciferase reporter signal suppression in cells – H4 neuroglioma cells, luminescence, dose response (AID 1990). The format is functional, cell-based. (In a reporter assay the amount or activity of a reporter protein is the signal.)
The nature of assay [6]: Luminescence Cell-Based Dose Response HTS to Identify Inhibitors of 5'UTR Stem-Loop Driven Prion Protein mRNA Translation in H4 Neuroglioblastoma Cells. [Related pubchem assays: 1827 (Project Summary), 1813 (Primary HTS)]. The class given is functional.
The nature of assay [7]: alpha-synuclein stem-loop luciferase translation blockers – H4 neuroglioma cells, luminescence, confirmation (AID 1988). The class given is functional, cell-based.

Structures are written as SMILES. Calls of active or inactive are those of the source.

Regarding `Cc1ccccc1C(=O)N=c1nc(S)ss1`, the EC50 (commonly the concentration giving half of the maximal effect) in assay [1] is 2.81 µM (active); at Streptokinase A, 2.04 µM (active); in the assay with Streptococcus it was 36.5 µM (active).
On to `CCCN(CCC)CCCNC(=O)c1ccc2c(c1)N(CC)C(=O)c1ccccc1[S+]2[O-]` (stereo not given), for which the AC50 (in general, the concentration at which the activity in the assay is half-maximal) at Cytochrome P450 2D6 was 22.4 µM (inconclusive); on Cytochrome P450 1A2, 0.01 µM (inconclusive).
For `N#Cc1c(NC(=O)Cn2c(=O)oc3ccccc32)oc(-c2ccccc2)c1-c1ccccc1`, the half-maximal activity concentration (AC50) in [2] was 1.97 µM (active).
As to `O=C(O)/C=C\C=C/c1ccc2c(c1)OCO2`, at Cytochrome P450 1A2, the half-maximal activity concentration (AC50) is 1.58 µM (inconclusive).
For `O=C(Nc1cccc(F)c1)N1CC[C@@]2(CCCN(S(=O)(=O)c3ccccc3)C2)C1`, the AC50 on Cytochrome P450 2D6 was 39.8 µM (inconclusive); at Cytochrome P450 1A2, 15.8 µM (inconclusive).
For the compound `CCSc1nnc(C(N)Cc2ccccc2)o1` (stereo not given), the AC50 on Cytochrome P450 2C19 is 28.2 µM (inconclusive); at Cytochrome P450 2D6, 17.8 µM (inconclusive); on Cytochrome P450 2C9, 2.24 µM (inconclusive).
Consider `Cc1nnc(NC(=O)c2ccc(S(=O)(=O)N3CC(C)CC(C)C3)cc2)o1` (stereo not given), for which the EC50 was 7.28 µM (active) in [1], > 150 µM (not active) at Streptokinase A and 21 µM (active) with Streptococcus.
For `COc1cccc(C(=O)Nc2nnc(-c3cccs3)o2)c1`, in that order: 9.25 µM (active), > 150 µM (not active) and 18.9 µM (active).
Take `Cc1ccc(NC(=O)c2c(C(F)(F)F)nn(C)c2SCc2cccc(C(F)(F)F)c2)cc1C`: the results for the EC50 in assay [3] and in assay [4] were 2.52 µM (active) and > 60 µM (inconclusive), respectively. For the same compound, the AC50 in the assay on INS1 is 5.94 µM (active); on Cytochrome P450 2D6, 14.1 µM (inconclusive).
Regarding `Cc1sc2ncnc(SCC(=O)N3CCCC(C(F)(F)F)C3)c2c1C` (stereo not given), the EC50 (in [1]; at Streptokinase A; in the assay with Streptococcus) was > 150 µM (not active) in each case.
On to `O=C(CC1NCCc2ccccc21)Nc1ccc(Oc2ccccc2)cc1` (stereo not given), for which, in assay [2], the AC50 is 7.35 µM (active).
Turning to `COc1ccc(NC(=O)N2CCC3(CC2)CCN(S(=O)(=O)c2ccccc2)CC3)cc1`, the results for the AC50 at Cytochrome P450 2D6, on Cytochrome P450 1A2 and on Cytochrome P450 3A4 were 25.1 µM (inconclusive), 31.6 µM (inconclusive) and 20 µM (inconclusive), respectively.
For `CN1CCN(c2ncc3nc(-c4ccccc4)c(=O)n(C)c3n2)CC1`, the AC50 on Cytochrome P450 1A2 was 15.8 µM (inconclusive).
As to `CCCOc1c(Cl)cc(C(=O)Nc2ccc3c(c2)OCO3)cc1OCC`, in assay [2], the AC50 is 2.39 µM (active).
Take `COC(=O)c1ccc(NC(=O)c2cccnc2)cc1`: the AC50 in the assay on INS1 is 5.28 µM (active).
In the case of `Cc1ccc(NC(=O)Nc2cccc([N+](=O)[O-])c2)cc1F`, the EC50 in assay [3] is 2.49 µM (active); in assay [4] it was > 60 µM (not active). Also, the AC50 in the assay with INS1 is 6.65 µM (active).
On to `Cc1cc(C(C)(C)C)ccc1OCCCCN1CCCC1`, for which the AC50 in assay [2] was 2.57 µM (active).
For the compound `Cc1nn(Cc2ccc(Cl)cc2Cl)c(C)c1NC(=O)c1sc2ccccc2c1Cl`, the concentration at half-maximal activity (AC50) on Cytochrome P450 2C19 is 22.4 µM (inconclusive); at Cytochrome P450 1A2, 25.1 µM (inconclusive); on Cytochrome P450 2C9, 1.78 µM (inconclusive).
Consider `COc1ccccc1C1(CC(=O)Nc2nccs2)CCOC(C(C)C)C1` (stereo not given), for which the half-maximal activity concentration (AC50) at Cytochrome P450 2D6 is 22.4 µM (inconclusive); on Cytochrome P450 1A2 it was 5.62 µM (inconclusive).
Consider `COc1ccc2nc(O)c(CN(CCO)C(=O)c3cccs3)cc2c1`, for which the half-maximal activity concentration (AC50) was 31.6 µM (inconclusive) on Cytochrome P450 2C19, 20 µM (inconclusive) on Cytochrome P450 1A2 and 15.8 µM (inconclusive) on Cytochrome P450 3A4.
On to `O=c1cc(CNc2cc(C(F)(F)F)cc(C(F)(F)F)c2)nc2sccn12`, for which the EC50 in assay [5] is 17.5 µM (active); in [6], 39.2 µM (active); in [7] it was > 120 µM (not active). Also, the half-maximal activity concentration (AC50) in assay [2] was 1.99 µM (active).
For `O=C(c1nc2ccc(Cl)cn2c1CN1CCC(CO)CC1)N1CCc2ccccc2C1`, the EC50 (in assay [1]; on Streptokinase A; with Streptococcus) was > 150 µM (not active) each time.
In the case of `Nc1c(Cl)cc(-c2csc(N3CCCC3c3nc4cc(Cl)c(Cl)cc4n3CCOCCO)n2)cc1Cl` (stereo not given), the EC50 (in assay [1]; at Streptokinase A; with Streptococcus) was > 150 µM (not active) in each case.
`C=CCC[C@H](Cc1ccc(F)cc1)C(=O)O[C@H](CNC(=O)[C@@H](CC=C)CC(=O)N(CCO)Cc1ccccc1)c1ccccc1`: the AC50 in assay [2] is 7.34 µM (active).
`Oc1cc(-c2ccc(N3CCCCC3)nc2)cc2cccnc12`: in the assay on INS1, the AC50 was 3.18 µM (active).
On the same count and under the same terms, the value for `Cn1cccc1C1C=C(c2ccc(C(C)(C)C)cc2)Nc2ncnn21` (stereo not given) was 3.45 µM (active).
As to `CCN(CC)C(=O)CSc1nnc(-c2ccncc2)n1N`, the AC50 is 17.8 µM (inconclusive) on Cytochrome P450 2D6 and 31.6 µM (inconclusive) at Cytochrome P450 2C9.
Take `CC(CNC(=O)c1ccc(OC2CCN(Cc3ccccn3)CC2)cc1)Oc1cccnc1` (stereo not given): in the assay on INS1, the AC50 is 5.59 µM (active).
For `O=C(CCC(=O)Nc1ccc(Br)cc1)N/N=C/c1ccccc1O`, the concentration for a half-maximal effect (EC50) is 12.6 µM (active) in [5]; 5.1 µM (active) in assay [1]; 33.8 µM (active) in assay [6]; 8.55 µM (active) in assay [7]; > 150 µM (not active) at Streptokinase A; 14.3 µM (active) with Streptococcus. Besides, the concentration at half-maximal activity (AC50) with INS1 is 3.65 µM (active).
As to `C[C@@H](CN1CCC(Cc2ccccc2)CC1)[C@@H](O)c1ccc(O)cc1`, the concentration at half-maximal activity (AC50) on Cytochrome P450 1A2 was 39.8 µM (inconclusive).
Consider `O=c1[nH]c2cc(Cl)ccc2c(O)c1-c1cccc(Oc2ccccc2)c1`, for which the concentration at half-maximal activity (AC50) on Cytochrome P450 2C19 is 31.6 µM (inconclusive); on Cytochrome P450 1A2, 2.51 µM (inconclusive).
On to `CCN(Cc1ccccc1)c1ccc(/C=N/NC(=S)NC(C)C)cc1`, for which the AC50 in [2] was 31.1 µM (active).
Turning to `Fc1cc(F)c(C2SCCN2C(=S)Nc2cccc(C(F)(F)F)c2)c(F)c1` (stereo not given), the 50% effective concentration (EC50) in [1] was 6.86 µM (active); at Streptokinase A it was 11.1 µM (active); with Streptococcus it was > 150 µM (not active).
Take `NC(=O)OCC(COC(N)=O)c1ccccc1` [FELBAMATE]: the concentration at half-maximal activity (AC50) on Cytochrome P450 1A2 was 39.8 µM (inconclusive).
